According to the METLIN SMRT retention time set (Domingo-Almenara et al. 2019):

Assay: gradient 5% acetonitrile 3 min, to 50% in 2 min, to 85% in 15 min, held 3 min, 100 µL/min
Conditions: column: Zorbax Extend-C18 2.1 x 50 mm; eluents: water / acetonitrile, 0.1% formic acid
In short: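 Retention times of pure standards were taken from adduct peaks that were selected by computer and manually inspected. Over 3 months, mixtures of ~100 molecules were run by HPLC–quadrupole time-of-flight mass spectrometry in positive and negative ionization mode. The Zorbax Extend-C18 column (2.1 × 50 mm, 1.8 μm) ran at 100 μL/min in water and acetonitrile, each containing 0.1% formic acid, with 40 μL dead volume and 900 μL dwell volume.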

RP-LC retention time [s] | SMILES
856 | OC(COc1cccc2ccccc12)CN1CCN(c2ccc(Cl)cc2)CC1 (stereo not given)
823 | CCOc1ccccc1NC(=O)c1ccccc1[N+](=O)[O-]
794 | Cc1ccc(NC(=O)C2CCN(S(=O)(=O)c3ccc4c(c3)sc(=O)n4C(C)C)CC2)nc1
725 | O=C(Cn1nc2c3ccc(F)cc3ncn2c1=O)Nc1ccccc1Cl
689 | Cc1cc(=O)n(CC(=O)Nc2cc(F)ccc2C)c(N2CCOCC2)n1
593 | CCc1nnc2cc(N3CCN(C(=O)Nc4cccc(C)c4)CC3)cnn12
936 | COc1cccc(NC(=O)CCC2CCN(S(=O)(=O)c3ccccc3)CC2)c1
902 | O=C(c1cc(C2CC2)[nH]n1)N1CCC(Cc2ccccc2)CC1
1240 | CC(C)c1ccc(-n2ccnc(NC(=O)Nc3cccc(Cl)c3)c2=O)cc1
669 | CCc1ccc(CNC(=O)c2cc(-c3ccncc3)cn2C)cc1
577 | OCC1CN(c2ncccn2)CC12CCN(Cc1cc(Cl)ccc1F)CC2 (stereo not given)
1070 | COc1ccccc1-c1noc(Cn2ccn3nc(-c4cccc5ccccc45)cc3c2=O)n1
711 | COc1ccc(CNC(=O)C2c3ccccc3CC(=O)N2C)cc1 (stereo not given)
918 | COc1ccc(OC)c(S(=O)(=O)N2CCC(n3cnc4c(C)cccc4c3=O)CC2)c1
845 | CCc1nc(OCC(=O)NCCOC)c2c(-c3ccc(F)cc3)noc2n1
1260 | COc1ccc(-c2noc(-c3nnn4c3COC(c3ccc(C)cc3C)C4)n2)cc1F (stereo not given)
1170 | CC(C)c1ccc(N2C(=O)C3N=NN(Cc4nc(-c5cccc(Br)c5)no4)C3C2=O)cc1 (stereo not given)
845 | COc1ccc(CNC(=O)C2(C)CCN(C(=O)Nc3cccc(SC)c3)CC2)cc1
971 | Cc1cc(NC(=O)CN2C(=O)C(C(=O)N3CCCC3)Sc3ccccc32)ccc1Br (stereo not given)
636 | Clc1cccc(-c2noc(Cn3ccnc3)n2)c1
885 | O=C(Cn1cccc(-c2nc(-c3ccccc3)no2)c1=O)Nc1ccccc1Cl
651 | CC(=O)Nc1ccc(NC(=O)CN2C(=O)C3CCCCN3C(=O)c3ccccc32)cc1 (stereo not given)
1320 | Cc1ccc(NS(=O)(=O)c2cc(-c3nc(C(C)(C)C)cs3)cs2)c(Cl)c1

RP-LC retention time [s] | SMILES
731 | Cn1cnc2ccc(-c3noc(CCc4c[nH]c5ccccc45)n3)cc21
678 | COC(=O)c1ccc(NC(=O)c2c(OC)cc(=O)n3c2CCCC3)cc1
838 | CCN1C(=O)COc2ccc(-c3csc(NC(=O)C4CCCO4)n3)cc21 (stereo not given)
666 | Cc1noc2nc(CCC(=O)NCc3ccc(F)cc3Cl)nc(N3CCOCC3)c12
718 | O=C(Cn1nc2c3cc(Cl)ccc3ncn2c1=O)Nc1ccccc1
602 | OC1CCOC2(CCN(Cc3ccccc3OC(F)(F)F)CC2)C1 (stereo not given)
661 | CC1CCCN(CC2CCN(C(=O)Nc3ccc(Br)cc3)CC2)C1 (stereo not given)
673 | CCNC(=O)C1CCCN(c2nc3ncn(CC(=O)Nc4cc(C)ccc4C)c(=O)c3s2)C1 (stereo not given)
1020 | COc1cccc(-c2nnc(Cc3nc(-c4ccc(F)cc4)no3)o2)c1
668 | Cc1cc2c(cc1S(=O)(=O)N1CCN(c3ccccn3)CC1)OCCN2C
679 | COc1ccc(C(=O)Nc2ccc(CC(=O)N3CCOCC3)cc2)c(OC)c1OC
553 | CCn1ccc(C(=O)N2CCC(Nc3ncnc4c3CCC4)CC2)n1
1320 | Cc1ccc(-c2cc3c(=O)n(Cc4nc(-c5ccc(Cl)cc5)no4)ncn3n2)c(C)c1
904 | CCOC(=O)c1c(C)n(CC(=O)OC)c2ccc(OC)cc12
796 | CCc1noc(COC2CCCN(C(=O)NCCc3ccccc3)C2)n1 (stereo not given)
629 | Cc1cc(C(=O)N2CCCCC2c2nncn2CC2CC2)nn1C (stereo not given)
939 | CCOCCCNC(=O)c1cc2sc(Cl)cc2n1C
679 | Cc1oc(-c2ccc(Cl)cc2)nc1CN1CCCC(C(=O)N2CCN(C(=O)c3ccco3)CC2)C1 (stereo not given)
909 | Nc1c(CC(=O)O)cccc1C(=O)c1ccc(Br)cc1
821 | COc1ccc(OC)c(NS(=O)(=O)c2cc3c(s2)CCN(C(=O)C2CC2)C3)c1
682 | COc1ccc(-c2nc3cnccn3c2Nc2ccc(C(=O)NCc3ccco3)cc2)cc1OC
1000 | CCN1C(=O)COc2ccc(-c3noc(Cc4cccc(OC)c4)n3)cc21
775 | COc1cccc(NC(=O)Cn2ncc3c(c2=O)N(CC2CC2)C(=O)CS3)c1

RP-LC retention time [s] | SMILES
1130 | O=S(=O)(c1cc(F)ccc1F)N1CCCCC1c1noc(COCC2CC2)n1 (stereo not given)
652 | O=C(NCC(O)c1ccsc1)c1ccc2c(c1)OCO2 (stereo not given)
1120 | CCn1c(=O)c2ccccc2n(Cc2nc(-c3ccc(C(F)(F)F)cc3)no2)c1=O
672 | O=C(Cn1ncc2c(c1=O)N(C1CC1)C(=O)CS2)NC1CCCCC1
712 | O=C(CCC1CCN(c2cc(NC3CC3)ncn2)CC1)NCc1ccc(F)c(Cl)c1
647 | CC(C)Oc1cc2oc(=O)cc(-c3ccccc3)c2cc1CCC(=O)N1CCN(c2ccccn2)CC1
620 | COc1ccc(-c2csc(Nc3cccnc3)n2)cc1OC
749 | Cc1ccc(-n2nc(N3CCN(C(=O)C4CC4)CC3)ccc2=O)cc1C
718 | O=C(Cc1nnc(-c2ccncc2)o1)NCc1ccc(C(F)(F)F)cc1
790 | O=C(NCc1ccc(F)cc1Cl)C1CCN(c2ncnc3c2oc2ccccc23)CC1
668 | COCCNC(=O)CSc1nccc2c1ccn2Cc1ccc(F)cc1
1090 | CCCn1c(=O)c(C)nc2cc(-c3noc(Cc4cccc(F)c4)n3)ccc21
848 | CCOc1ccccc1CNC(=O)CN1CCN(Cc2ccccc2)C1=O
1090 | COc1cccc(-c2noc(CN3C(=O)COc4cc(Cl)ccc43)n2)c1
824 | COc1ccc(CC(=O)Nc2nnc(SCc3ccccc3F)s2)cc1OC
1070 | Cc1ccc(N2CC(c3nc(-c4ccc5c(c4)nnn5C4CCCC4)no3)CC2=O)cc1 (stereo not given)
680 | Cc1cc(C(=O)NC2CCCC2)nn1C
598 | COc1ccc(CN(C)Cc2cc(=O)n3cc(C)ccc3n2)cc1
723 | CCSc1nc2nc3c(cn2n1)C(=O)CCC3
778 | Cc1ccc(OCc2nc(-c3cccc(-c4ccn[nH]4)c3)no2)cc1
836 | COc1cccc(NC(=O)C2CCN(S(=O)(=O)c3ccc4c(c3)CCCN4C(C)=O)CC2)c1
868 | Cc1c(C)n(-c2ccc(Cl)cc2)c2ncn(CC(=O)NCc3ccco3)c(=O)c12
832 | COCCOC(=O)C1=C(C)NC2=C(C(=O)C(C(=O)OC)C(C)C2)C1c1cccc(F)c1 (stereo not given)

RP-LC retention time [s] | SMILES
836 | Cc1cc(C)n(-c2ccnc(N3CCC(C(=O)NCCC(C)C)CC3)n2)n1
833 | CN1c2cc(C(=O)NCc3ccc(F)cc3Cl)ccc2C(=O)N2CCCCC21 (stereo not given)
989 | COc1cc(-c2nc3cccc(C)n3c2Nc2ccc(C)cc2)ccc1O
598 | CCOc1ccc(CN2CCC3(CCC3O)CC2)cc1OCC (stereo not given)
714 | Cc1nn(C)c(C)c1CNC(=O)c1ccc2nc(Cc3ccccc3)oc2c1
880 | CCc1ccccc1NC(=O)C1CCN(S(C)(=O)=O)c2cc(C)ccc2O1 (stereo not given)
1200 | Cc1ccc(-c2noc(CN3C(=O)COc4cc(Cl)ccc43)n2)cc1C
939 | CCCN(CC1CCOC1)S(=O)(=O)c1cc(Cl)ccc1OC (stereo not given)
645 | O=C(CCSCc1ccccc1F)N1CCN(c2ccccn2)CC1
924 | Cc1cccc(NC(=O)N2CCCC(C)(C(=O)NCc3ccc(F)cc3)C2)c1 (stereo not given)
639 | O=C(c1ccoc1)N1CCC2(CCCCO2)CC1
648 | CCN(CC)C(=O)c1ccc2c(c1)N(C(=O)NC)CC2
693 | CCn1cc(S(=O)(=O)Nc2ccc3nc(S(=O)(=O)CC)sc3c2)cn1
607 | O=C(c1ccco1)N1CCN(C(=O)C2CCN(c3ccc(N4CCCCC4)nn3)CC2)CC1
1010 | Cc1cccc(-n2c(=O)c3sccc3n(Cc3nc(-c4ccccc4Cl)no3)c2=O)c1
1090 | Cc1ccccc1N1CCN(S(=O)(=O)c2ccc(-c3nnc(C4CC4)o3)o2)CC1
859 | CCCN(CCC)C(=O)Cn1nc(-c2nc(-c3ccc(C)cc3)no2)c2ccccc21
1220 | CCOc1ccc(-c2cc3c(=O)n(Cc4nc(-c5cccc(OCC)c5)no4)ncn3n2)cc1
769 | O=C(NC1CCCC1)C1CC(=O)N(CCc2c[nH]c3ccc(Cl)cc23)C1 (stereo not given)
749 | O=S(=O)(Nc1cccn2c(C3CCC3)nnc12)c1cccc2cccnc12
670 | CC(=O)NCc1csc(C2CCCN(C(=O)COc3ccccc3)C2)n1 (stereo not given)
